Reference: patent publication US5136090A, “Biphenyl-5,5'-bis-alkanoic acid derivatives, their production and aldose reductase inhibitors containing the same” (Toyo Jozo Kabushiki Kaisha, priority 1990, dated 1992)

Key:
[1] = target: T1, partially purified bovine lens aldose reductase (Bos taurus, UniProt P16116); test: Inhibitory activity on aldose reductase enzyme reaction; assay type: biochemical; details: for inhibition at 0.02 µg/mL: concentration 0.02 μg/ml; for inhibition at 0.1 µg/mL: concentration 0.1 μg/ml; for inhibition at 1 µg/mL: concentration 1.0 μg/ml
T1 construct: partially purified bovine lens aldose reductase; from tissue; host or cells: bovine lens
Procedure: The preparation of aldose reductase and the determination of its inhibitory action on enzyme reaction activity were carried out pursuant to the procedures disclosed by Haymann et al. in Journal of Biological Chemistry, 240, 877 (1965).
The sample solution to be examined for inhibitory activity was prepared by dissolving a compound of formula (I) according to the present invention in a small amount of methanol and increasing the volume of the resulting methanol solution by diluting it with distilled water up to tenfold volume. A partially purified bovine lens aldose reductase was used for the assay.
To 2.4 ml of a solution of 5×10^-5 M NADPH dissolved in a 2/15M phosphate buffer solution (pH 6.0), 0.4 ml of the enzyme solution (15 m units/ml) and 0.1 ml of the sample solution to be examined were added and the mixture was introduced into a quartz cell in a photoelectric photometer and subjected to pre-incubation at 37° C. for 4 mins. Then, 0.1 ml of a 0.015M D,L-glyceraldehyde solution was added thereto for initiating the enzyme reaction and the decrease in the optical absorption at 340 nm was measured at 37° C. for 4 mins. The inhibitory activity on aldose reductase was calculated by the following equation: [formula] in which A represents the enzyme reaction rate with addition of the inhibitor and B denotes the enzyme reaction rate without addition of the inhibitor.

Sciatic Nerve = test: Suppression of sorbitol accumulation in cultured sciatic nerve; assay type: cell-based, Wistar rats; details: concentration 1.0 μg/ml, rat sciatic nerve cultured 20 hours with 0.9% glucose; for inhibition at 1 µg/mL: Rattus norvegicus, 20 h
Procedure: (§1) Lenses and sciatic nerves extirpated from Wistar rats, male, aged 7 weeks, were washed twice with an aseptic buffer solution consisting of 0.3% trisaminomethane, 0.8% NaCl, 0.038% KCl, 0.025% Na2 HPO4 ·12H2 O, 0.1% glucose and 1.85 ml/l of concentrated HCl.
(§2) The lenses and the sciatic nerves were then preincubated for 30 mins. in a culture medium prepared by adding 2 ml of 7.5% NaHCO3 aseptic solution and 5.5 ml of aseptic calf fetus serum to 100 ml of an aseptic culture medium of 0.98% TC Medium 199 (NISSUI Corp.) containing 0.01% of dihydrostreptomycin and 0.01% of benzylpenicillin. Thereafter, the intrinsic culture was effected in a culture medium prepared by adding each sample solution to be examined and 0.9% of glucose to the abovementioned culture medium and permitting culturing to proceed for 20 hours. The incubation was effected at 37° C. in an atmosphere composed of 95% air and 5% CO2.
(§3) After culturing, the cultured samples of lens and sciatic nerve were removed from the culture medium to filter paper and the weight of each of them was measured after the adherent culture solution had been blown off. Then, each of the cultured samples was homogenized with the addition of 1 ml of a cold 8% HClO4 solution and the homogenized mixture was subjected to centrifugation at 10,000 G for 10 mins., whereby a supernatant was obtained. The resulting precipitate was then homogenized again with addition thereto of 0.5 ml of cold 8% HClO4 solution and the homogenized mixture was again subjected to centrifugation in a similar way as above to obtain a further supernatant. This was combined with the previously obtained supernatant and the resulting solution was neutralized with 2N KOH aq. solution and was supplemented with distilled water to a volume of 5 ml. The precipitate formed by neutralization was separated by centrifugation at 3,000 rpm for 10 mins. and the resulting supernatant was employed as the sample for determining the sorbitol content.
(§4) The determination of the sorbitol content in the lens and in the sciatic nerve was carried out in accordance with the method of Bergmeyer in "Methods of Enzymatic Analysis" edited by H. U. Bergmeyer, pp 1323-1326, Academic Press, New York, 1974 and in accordance with the method of Malaon et al. in "Diabetes" 29, 861-864 (1980).
(§5) To 0.5 ml cf the sample solution for determination of sorbitol content obtained as above, 0.9 ml of 0.1M glycine-KOH buffer solution (pH 9.4) containing 1 mM of NAD^+ and 0.1 ml of a solution of sorbitol dehydrogenase of 20 units/ml were added and the resulting mixture was subjected to incubation at 37° C. for 1 hour.
(§6) The content of sorbitol in each tissue was estimated by assuming the increment of the optical absorption at 340 nm to be proportional to the amount of NADH produced by the reaction for the lens and by detecting the fluorescence with an excitation wavelength of 366 nm and a fluorescence wavelength of 425 nm for the sciatic nerve.
(§7) The activity for suppressing accumulation of sorbitol, i.e. the aldose reductase inhibiting activity, was calculated from the determined sorbitol content by the calculation formula [formula] in which A denotes the content of sorbitol per unit weight of the tissue after cultivation with addition of the inhibitor, B denotes the sorbitol content per unit weight of the tissue after cultivation without addition of the inhibitor and C represents the sorbitol content per unit weight of the tissue after cultivation in the medium without addition of glucose and inhibitor.

Lens = test: Suppression of sorbitol accumulation in cultured lens; assay type: cell-based, Wistar rats; details: rat lens cultured 20 hours with 0.9% glucose; for inhibition at 2.5 µg/mL: concentration 2.5 μg/ml; for inhibition at 5 µg/mL: concentration 5 μg/ml
Procedure: as §1, §2, §3, §4, §5, §6, §7

inhibition at 0.02 µg/mL [1]	inhibition at 0.1 µg/mL [1]	inhibition at 1 µg/mL [1]	SMILES	inhibition at 1 µg/mL (Sciatic Nerve)	inhibition at 2.5 µg/mL (Lens)	inhibition at 5 µg/mL (Lens)	Inhibition of sorbitol Accumulation (%) Sciatic Nerve (Sciatic Nerve)
27.2%	63.9%	–	CCOc1ccc(CCCC(=O)O)cc1-c1cc(CCCC(=O)O)ccc1O [Example 22, 2-ethoxy-2'-hydroxy-5,5'-bis (3-carboxypropyl) biphenyl]	–	–	–	–
18.7%	73.1%	–	O=C(O)CCCc1ccc(O)c(-c2cc(CCCC(=O)O)ccc2OCC2CCCCC2)c1 [Example 20, 2-cyclohexylmethoxy-2'-hydroxy-5, 5'-bis (3-carboxypropyl) biphenyl]	51.5%	–	–	–
28.8%	71.7%	–	O=C(O)CCCc1ccc(O)c(-c2cc(CCCC(=O)O)ccc2OCCCCl)c1 [Example 28, 2-(3-chloropropoxy)-2'-hydroxy-5, 5'-bis (3-carboxypropyl) biphenyl]	69%	–	–	–
33.6%	69.2%	–	CCCOc1ccc(CCCC(=O)O)cc1-c1cc(CCCC(=O)O)ccc1O [Example 23, 2-propoxy-2'-hydroxy-5,5'-bis (3-carboxypropyl) biphenyl]	81.1%	55.3%	–	–
21.1%	51.4%	–	COc1ccc(CCC(=O)O)cc1-c1cc(CCC(=O)O)ccc1O [Example 16, 2-methoxy-2'-hydroxy-5,5'-bis (2-carboxyethyl) biphenyl]	47.7%	59.3%	–	–
–	54%	89.1%	O=C(O)CCc1ccc(O)c(-c2cc(CCC(=O)O)ccc2OCc2ccc(Br)cc2F)c1 [Example 2, 2-(2-fluoro-4-bromobenzyloxy)-2'-hydroxy-5,5'-bis (2-carboxyethyl) biphenyl]	–	–	–	–
23.8%	62.6%	–	O=C(O)CCCc1ccc(O)c(-c2cc(CCCC(=O)O)ccc2OCc2ccc(Br)cc2F)c1 [Example 19, 2-(2-fluoro-4-bromobenzyloxy)-2'-hydroxy-5, 5'-bis (3-carboxypropyl) biphenyl]	–	–	–	–
–	73.6%	90%	CCCOc1ccc(CCC(=O)O)cc1-c1cc(CCC(=O)O)ccc1O [Example 5, 2-propoxy-2'-hydroxy-5,5'-bis (2carboxyethyl) biphenyl]	73.3%	32.7%	79.2%	73.8%
23.8%	61.2%	–	CC(C)CCOc1ccc(CCCC(=O)O)cc1-c1cc(CCCC(=O)O)ccc1O [Example 27, 2-isopentyloxy-2'-hydroxy-5, 5'-bis (3-carboxypropyl) biphenyl]	–	–	–	–
–	61.9%	89.1%	CC(C)CCOc1ccc(CCC(=O)O)cc1-c1cc(CCC(=O)O)ccc1O [Example 12, 2-isopentyloxy-2'-hydroxy-5, 5'-bis (2-carboxyethyl) biphenyl]	59.5%	–	78.1%	–
–	52.4%	90.5%	O=C(O)CCc1ccc(O)c(-c2cc(CCC(=O)O)ccc2OCCc2ccccc2)c1 [Example 14, 2-phenethyloxy-2'-hydroxy-5, 5'-bis (2-carboxyethyl) biphenyl]	62.4%	–	–	–
35.3%	73.1%	–	CCCCCCCCOc1ccc(CCCC(=O)O)cc1-c1cc(CCCC(=O)O)ccc1O [Example 26, 2-octyloxy-2'-hydroxy-5,5'-bis (3-carboxypropyl) biphenyl]	43.3%	–	–	–
14.7%	52.7%	–	COc1ccc(CCCC(=O)O)cc1-c1cc(CCCC(=O)O)ccc1O [Example 21, 2-methoxy-2'-hydroxy-5,5'-bis (3-carboxypropyl) biphenyl]	75.4%	48.8%	–	–
–	47.6%	89.6%	O=C(O)CCc1ccc(O)c(-c2cc(CCC(=O)O)ccc2OC2CCCCC2)c1 [Example 15, 2-cyclohexyloxy-2'-hydroxy-5, 5'-bis (2-carboxyethyl) biphenyl]	43.2%	–	–	–
20.5%	69.2%	–	CCCCCCCOc1ccc(CCCC(=O)O)cc1-c1cc(CCCC(=O)O)ccc1O [Example 25, 2-heptyloxy-2'-hydroxy-5,5'-bis (3-carboxypropyl) biphenyl]	–	–	–	–
–	56.4%	90.9%	CCCCCOc1ccc(CCC(=O)O)cc1-c1cc(CCC(=O)O)ccc1O [Example 7, 2-pentyloxy-2'-hydroxy-5,5'-bis (2carboxyethyl) biphenyl]	–	–	–	–
–	60.6%	95.2%	O=C(O)CCCOc1ccc(CCC(=O)O)cc1-c1cc(CCC(=O)O)ccc1O [Example 13, 2-(3-carboxypropoxy)-2'-hydroxy-5, 5'-bis (2-carboxyethyl) biphenyl]	–	–	–	–
–	73.6%	91.9%	O=C(O)CCc1ccc(O)c(-c2cc(CCC(=O)O)ccc2OCC2CCCCC2)c1 [Example 3, 2-cyclohexylmethoxy-2'-hydroxy-5,5'-bis (2-carboxyethyl) biphenyl]	73.2%	44.7%	85.2%	64.8%
–	58.6%	91.9%	CCCCCCOc1ccc(CCC(=O)O)cc1-c1cc(CCC(=O)O)ccc1O [Example 8, 2-hexyloxy-2'-hydroxy-5,5'-bis (2carboxyethyl) biphenyl]	–	–	–	–
–	81.5%	92.8%	CCCCCCCCCCCOc1ccc(CCC(=O)O)cc1-c1cc(CCC(=O)O)ccc1O [Example 11, 2-undecyloxy-2'-hydroxy-5,5'-bis (2-carboxyethyl) biphenyl]	34.7%	–	–	–
–	50.4%	88.2%	O=C(O)CCc1ccc(O)c(-c2cc(CCC(=O)O)ccc2OCC2CCCCO2)c1 (stereo not shown) [Example 4, 2-(tetrahydro-2H-pyran-2-yl) methoxy-2'-hydroxy-5,5'-bis (2-carboxyethyl) biphenyl]	–	–	–	–
22%	60.6%	–	O=C(O)CCCc1ccc(O)c(-c2cc(CCCC(=O)O)ccc2OCc2ccccc2)c1 [Example 18, 2-benzyloxy-2'-hydroxy-5,5'-bis (3-carboxypropyl) biphenyl]	–	–	–	–

SMILES	inhibition at 0.02 µg/mL [1]	inhibition at 0.1 µg/mL [1]	inhibition at 1 µg/mL [1]	inhibition at 1 µg/mL (Sciatic Nerve)	inhibition at 2.5 µg/mL (Lens)	inhibition at 5 µg/mL (Lens)	Inhibition of sorbitol Accumulation (%) Sciatic Nerve (Sciatic Nerve)
CCCCOc1ccc(CCCC(=O)O)cc1-c1cc(CCCC(=O)O)ccc1O [Example 24, 2-butoxy-2'-hydroxy-5,5'-bis (3-carboxypropyl) biphenyl]	25.6%	62.6%	–	–	–	–	–
CCCCOc1ccc(CCC(=O)O)cc1-c1cc(CCC(=O)O)ccc1O [Example 6, 2-butoxy-2'-hydroxy-5,5'-bis (2-carboxyethyl) biphenyl]	–	58.6%	90%	–	–	–	–
